Data published in BindingDB's records for doi:10.1021/jm011007+ (University of Perugia, 2002).
“And” between values parts separate entries of the source, which are not always exact repeats. Identical values can stand only once.

Legend:
[1] = molecular target: Sodium-dependent dopamine transporter (Homo sapiens, UniProt Q01959); assay: Inhibition of radioligand [125I]RTI-55 binding to human Dopamine transporter in clonal cells
[2] = molecular target: Sodium-dependent serotonin transporter (Homo sapiens, UniProt P31645); assay: Inhibition of [125I]RTI-55 binding to human SERT in clonal cells
Sodium-dependent serotonin transporter, sequence (P31645 whole entry): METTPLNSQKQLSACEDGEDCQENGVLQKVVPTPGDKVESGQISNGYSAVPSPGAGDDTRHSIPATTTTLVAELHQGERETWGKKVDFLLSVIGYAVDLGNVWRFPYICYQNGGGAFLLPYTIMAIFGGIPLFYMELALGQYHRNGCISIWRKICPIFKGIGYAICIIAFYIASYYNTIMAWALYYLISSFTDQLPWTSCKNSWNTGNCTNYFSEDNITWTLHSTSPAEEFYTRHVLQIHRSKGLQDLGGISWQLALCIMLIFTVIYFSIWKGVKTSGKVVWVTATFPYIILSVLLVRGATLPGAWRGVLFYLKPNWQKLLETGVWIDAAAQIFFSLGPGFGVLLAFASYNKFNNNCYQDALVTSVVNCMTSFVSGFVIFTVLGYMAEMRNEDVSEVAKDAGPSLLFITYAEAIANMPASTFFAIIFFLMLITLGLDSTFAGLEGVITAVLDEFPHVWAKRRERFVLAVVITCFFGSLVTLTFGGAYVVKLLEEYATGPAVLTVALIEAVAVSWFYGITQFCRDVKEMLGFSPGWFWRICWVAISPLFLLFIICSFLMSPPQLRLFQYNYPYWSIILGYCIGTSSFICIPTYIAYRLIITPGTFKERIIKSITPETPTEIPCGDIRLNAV

Sodium-dependent dopamine transporter, sequence (Q01959 whole entry): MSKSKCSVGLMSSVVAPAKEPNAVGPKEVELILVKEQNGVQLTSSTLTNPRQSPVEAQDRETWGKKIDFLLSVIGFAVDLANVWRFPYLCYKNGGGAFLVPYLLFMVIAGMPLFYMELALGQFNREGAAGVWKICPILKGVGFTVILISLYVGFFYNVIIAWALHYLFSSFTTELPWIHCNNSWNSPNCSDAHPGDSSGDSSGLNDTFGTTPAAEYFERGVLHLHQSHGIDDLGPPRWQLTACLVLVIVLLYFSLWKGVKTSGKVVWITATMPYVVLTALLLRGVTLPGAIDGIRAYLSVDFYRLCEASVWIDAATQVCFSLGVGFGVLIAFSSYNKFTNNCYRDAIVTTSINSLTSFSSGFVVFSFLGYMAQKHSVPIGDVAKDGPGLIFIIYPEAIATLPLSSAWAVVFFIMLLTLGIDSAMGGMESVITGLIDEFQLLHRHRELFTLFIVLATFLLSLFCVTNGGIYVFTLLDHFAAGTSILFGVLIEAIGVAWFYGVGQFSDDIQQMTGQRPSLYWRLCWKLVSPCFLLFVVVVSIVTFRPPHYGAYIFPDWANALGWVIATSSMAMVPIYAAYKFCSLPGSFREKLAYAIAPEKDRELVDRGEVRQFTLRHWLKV

| SMILES | Kd [1] | Kd [2] |
| --- | --- | --- |
| COc1ccc(N(CCN2CCN(CCCc3ccccc3)CC2)Cc2ccccc2)cc1 | 912 nM | 257 nM |
| O=C(CCCCN1CCN(CCCc2ccccc2)CC1)N(Cc1ccccc1)c1ccccc1 | 58 nM | 204 nM |
| c1ccc(CCCN2CCN(CCCN(Cc3ccccc3)c3ccccn3)CC2)cc1 | 107 nM | 2290 nM |
| Cc1ccc(CN(CCN2CCN(CCCc3ccccc3)CC2)c2ccccc2)cc1 | 427 nM | 813 nM |
| Clc1ccc(C(OCCN2CCN(C/C=C/c3ccccc3)CC2)c2ccc(Cl)cc2)cc1 | 38 nM | 331 nM |
| Fc1ccc(C(OCCN2CCN(CCCc3ccc(Cl)cc3)CC2)c2ccc(F)cc2)cc1 | 8.1 nM | 155 nM |
| c1ccc(CCCN2CCN(CCN(Cc3ccccc3)c3ccccn3)CC2)cc1 | 91 nM | 525 nM |
| O=C(/C=C/c1ccccc1Cl)N1CCN(CCOC(c2ccc(F)cc2)c2ccc(F)cc2)CC1 | 724 nM | 170 nM |
| Brc1ccc(CN(CCN2CCN(CCCc3ccccc3)CC2)c2ccc(Br)cc2)cc1 | 977 nM | 1620 nM |
| Fc1ccc(/C=C/CN2CCN(CCOC(c3ccccc3)c3ccc(F)cc3)CC2)cc1 (stereo unspecified) | 23 nM | 200 nM |
| Fc1ccc(CN(CCN2CCN(CCCc3ccccc3)CC2)c2ccccn2)cc1 | 65 nM | 229 nM |
| Fc1ccc(CCCN2CCN(CCOC(c3ccc(F)cc3)c3ccc(F)cc3)CC2)cc1 | 5.6 nM | 363 nM |
| Fc1ccc(/C=C/CN2CCN(CCOC(c3ccc(F)cc3)c3ccc(F)cc3)CC2)cc1 | 3.9 nM | 229 nM |
| Fc1ccc(/C=C/CN2CCN(CCOC(c3ccccc3)c3ccccc3)CC2)cc1 | 16 nM | 1320 nM |
| c1ccc(CCCN2CCN(CCN(Cc3ccccc3)c3ccccc3)CC2)cc1 | 219 nM | 1200 nM |
| Fc1ccc(CCCN2CCN(CCOC(c3ccccc3)c3ccc(F)cc3)CC2)cc1 (stereo unspecified) | 31 nM | 468 nM |
| Fc1ccc(CN(CCN2CCN(CCCc3ccccc3)CC2)c2ccc(F)cc2)cc1 | 52 nM | 269 nM |
| COc1ccc(C(OCCN2CCN(C/C=C/c3ccccc3)CC2)c2ccccc2)cc1 (stereo unspecified) |  | 692 nM |
| Cc1ccc(C(OCCN2CCN(C/C=C/c3ccccc3)CC2)c2ccccc2)cc1 (stereo unspecified) | 112 nM | 1120 nM |
| COc1ccc(CN(CCN2CCN(CCCc3ccccc3)CC2)c2ccccn2)cc1 | 219 nM | 162 nM |
| O=C(CCCN1CCN(CCCc2ccccc2)CC1)N(Cc1ccccc1)c1ccccn1 | 562 nM | 1320 nM |
| Fc1ccc(CCCN2CCN(CCOC(c3ccccc3)c3ccccc3)CC2)cc1 | 40 nM | 1820 nM |
| Fc1ccc(C(OCCN2CCN(C/C=C/Cc3ccccc3)CC2)c2ccc(F)cc2)cc1 | 5.1 nM | 72 nM |
| c1ccc(CCCN2CCN(CCCCN(Cc3ccccc3)c3ccccc3)CC2)cc1 | 14 nM | 132 nM |
| Fc1ccc(C(OCCN2CCN(C/C=C/c3ccccc3)CC2)c2ccc(Cl)cc2Cl)cc1 (stereo unspecified) | 66 nM | 525 nM |
| Fc1ccc(CN(CCCN2CCN(CCCc3ccccc3)CC2)c2ccccn2)cc1 | 11 nM | 282 nM |

| SMILES | Kd [1] | Kd [2] |
| --- | --- | --- |
| Fc1ccc(C(OCCN2CCN(CCCc3ccccc3)CC2)c2ccccc2)cc1 (stereo unspecified) | 20 nM | 617 nM |
| Fc1ccc(C(OCCN2CCN(C/C=C/c3ccccc3)CC2)c2ccc(F)cc2)cc1 |  | 954 nM and 363 nM |
| Fc1ccc(C(OCCN2CCN(C/C=C/c3ccccc3)CC2)c2ccccc2)cc1 (stereo unspecified) | 33 nM | 214 nM |
| O=C(/C=C/c1ccc(Cl)cc1)N1CCN(CCOC(c2ccc(F)cc2)c2ccc(F)cc2)CC1 | 427 nM | 72 nM |
| Cc1ccc(/C=C/C(=O)N2CCN(CCOC(c3ccc(F)cc3)c3ccc(F)cc3)CC2)cc1 | 794 nM | 195 nM |
| Cc1ccc(/C=C/CN2CCN(CCOC(c3ccc(F)cc3)c3ccc(F)cc3)CC2)cc1 | 48 nM | 661 nM |
| c1ccc(CCCN2CCN(CCCCCN(Cc3ccccc3)c3ccccc3)CC2)cc1 | 32 nM | 234 nM |
| O=C(/C=C/c1c(Cl)cccc1Cl)N1CCN(CCOC(c2ccc(F)cc2)c2ccc(F)cc2)CC1 | 1510 nM | 209 nM |
| O=C(CCCN1CCN(CCCc2ccccc2)CC1)N(Cc1ccccc1)c1ccccc1 | 28 nM | 525 nM |
| COc1ccc(N(CCN2CCN(C/C=C/c3ccccc3)CC2)Cc2ccccc2)cc1 |  | 282 nM |
| COc1cccc(C(OCCN2CCN(C/C=C/c3ccccc3)CC2)c2cccc(Br)c2)c1 (stereo unspecified) | 132 nM | 741 nM |
| CN(CCc1ccccc1)CCN1CCN(CCCc2ccccc2)CC1 | 550 nM | 2630 nM |
| C(=C\c1ccccc1)/CN1CCN(CCN(Cc2ccccc2)c2ccccn2)CC1 | 1000 nM | 676 nM |
| c1ccc(CCCN2CCN(CCCN(Cc3ccccc3)c3ccccc3)CC2)cc1 | 10 nM | 759 nM and 758 nM |
| Fc1ccc(C(OCCN2CCN(C/C=C/c3ccc(Cl)cc3)CC2)c2ccc(F)cc2)cc1 | 22 nM | 813 nM |
| Fc1ccc(CN(CCCN2CCN(CCCc3ccccc3)CC2)c2ccc(F)cc2)cc1 | 14 nM | 331 nM |
| C(=C\c1ccccc1)/CN1CCN(CCN(Cc2ccccc2)c2ccccc2)CC1 | 447 nM | 603 nM |
| COc1ccc(OC)c(/C=C/C(=O)N2CCN(CCOC(c3ccc(F)cc3)c3ccc(F)cc3)CC2)c1 | 562 nM | 204 nM |
| COc1ccc(/C=C/C(=O)N2CCN(CCOC(c3ccc(F)cc3)c3ccc(F)cc3)CC2)cc1 | 490 nM | 141 nM |
| COc1ccc(OC)c(/C=C/CN2CCN(CCOC(c3ccc(F)cc3)c3ccc(F)cc3)CC2)c1 | 3.8 nM | 182 nM |
| COc1ccc(CN(CCCN2CCN(CCCc3ccccc3)CC2)c2ccccn2)cc1 | 16 nM | 59 nM |
| O=C(CN1CCN(CCCc2ccccc2)CC1)N(Cc1ccccc1)c1ccccc1 | 1070 nM | 2880 nM |
| COc1ccc(CN(CCN2CCN(C/C=C/c3ccccc3)CC2)c2ccccn2)cc1 | 2190 nM | 229 nM |
| COc1ccc(/C=C/CN2CCN(CCOC(c3ccc(F)cc3)c3ccc(F)cc3)CC2)cc1 [1-{2-[Bis-(4-fluoro-phenyl)-methoxy]-ethyl}-4-[(E)-3-(4-methoxy-phenyl)-allyl]-piperazine] | 65 nM | 372 nM |
| Fc1ccc(C(OCCN2CCN(Cc3ccccc3)CC2)c2ccc(F)cc2)cc1 | 98 nM | 182 nM |
| Fc1ccc(C(OCCN2CCN(C/C=C/c3ccccc3)CC2)c2ccc(Cl)cc2)cc1 (stereo unspecified) | 3.9 nM | 191 nM |
